{"source": "patent US4610989A", "about": "“Analgesic composition containing a mixture of 6-chloro-α-methyl-carbazole-2-acetic acid plus an opiate as the active agent” (priority 1985, dated 1986)", "tested_on": "phenylquinone induced writhing", "type": "in vivo, male CF-1 mice", "conditions": "for ED50 (95% Conf. Limits): p.o.; for ED50 (95% Conf. Limits) / Oral Ed50 / Oral ED50 (95% Confidence Limits): given alone; for % Inhibition / No. Writhing Episodes: alone; for Oral ED50 (95% Confidence Limits): Table II", "protocol": "The phenylquinone was dissolved in 5% ethyl alcohol and distilled water, gently heated to 37° C. and kept in a brown stoppered bottle to prevent deterioration. The test compounds were administered orally, in rapid succession, in distilled water 15 minutes prior to the phenylquinone.\nThe means and standard deviations computed during this analysis were then analyzed by \"parallel line bioassay\" that compared the opiate alkaloid alone in graded doses against, in turn, each combination of a range of opiate alkaloid doses plus a constant dose of carbazole compound. […] The opiate alkaloid dose scale here was always logarithmic.\nThe sequence of treatments in this study was not random. Rather, the ED50 for opiate alkaloid alone was determined. After this, combination experiments were conducted in which the carbazole racemic 6-chloro-α-methyl-carbazole-2-acetic acid, was administered at a constant dose and the ED50 of opiate alkaloid was redetermined in the presence of racemic 6-chloro-α-methyl-carbazole-2-acetic acid.\nInhibition of phenylquinone induced writhing by oxycodone potentiated by 6-chloro-α-methyl carbazole-2-acetic acid was determined by the procedure described hereinabove with one change. […] This transformation consisted of the [(square root of the number of writhes)+(square root of the number of writhes+1)] and is commonly employed with data that are distributed in a Poisson distribution.\nInhibition of phenylquinone induced writhing by morphine potentiated by 6-chloro-α-methyl-carbazole-2-acetic acid was determined by the procedure described hereinabove with one further change. […] This analysis was carried out on the set of values representing the percent of inhibition of writhing observed at each dose, as defined above, in any given assay.", "key": {"[1]": {"conditions": "Table V, Litchfield and Wilcoxon"}, "[2]": {"conditions": "Table III, square-root transformed writhes"}, "[3]": {"conditions": "Table I, regression analysis and Fieller's Theorem"}}, "note": "Values joined by “and” are separate entries in the source; they are usually repeats but may differ in a detail not shown here. Identical values can stand only once. Like-named read-outs stand apart in the source and are kept apart here."}
{"smiles": "CN1CC[C@]23c4c5ccc(O)c4O[C@H]2[C@@H](O)C=C[C@H]3[C@H]1C5", "note": "[Morphine, morphine]", "values": [{"measurement": "ED50 (95% Conf. Limits)", "setting": "[1]", "value": "2.5(1-4) mg/kg"}, {"measurement": "Oral Ed50", "setting": "Table VI", "value": "2.5(1-4)"}, {"measurement": "% Inhibition", "setting": "oral dose 1.25", "value": 21, "unit": "%"}, {"measurement": "% Inhibition", "setting": "oral dose 2.5", "value": 47, "unit": "%"}, {"measurement": "% Inhibition", "setting": "oral dose 5", "value": 83, "unit": "%"}, {"measurement": "% Inhibition", "setting": "oral dose 10", "value": 95, "unit": "%"}]}
{"smiles": "COc1ccc2c3c1O[C@H]1C(=O)CC[C@@]4(O)[C@@H](C2)N(C)CC[C@]314", "note": "[Oxycodone, oxycodone]", "values": [{"measurement": "ED50 (95% Conf. Limits)", "setting": "[2]", "value": "0.25 (0.19-0.32) mg/kg"}, {"measurement": "Oral Ed50", "setting": "Table IV", "value": "0.25(0.19-0.32)"}, {"measurement": "% Inhibition", "setting": "oral dose 0.125", "value": 23, "unit": "%"}, {"measurement": "No. Writhing Episodes", "setting": "oral dose 0.125", "value": 87}, {"measurement": "% Inhibition", "setting": "oral dose 0.25", "value": 43, "unit": "%"}, {"measurement": "No. Writhing Episodes", "setting": "oral dose 0.25", "value": 64}, {"measurement": "% Inhibition", "setting": "oral dose 0.5", "value": 73, "unit": "%"}, {"measurement": "No. Writhing Episodes", "setting": "oral dose 0.5", "value": 31}, {"measurement": "% Inhibition", "setting": "oral dose 1", "value": 88, "unit": "%"}, {"measurement": "No. Writhing Episodes", "setting": "oral dose 1", "value": 14}, {"measurement": "% Inhibition", "setting": "oral dose 2", "value": 96, "unit": "%"}, {"measurement": "No. Writhing Episodes", "setting": "oral dose 2", "value": 5}]}
{"smiles": "COc1ccc2c3c1O[C@H]1[C@@H](O)C=C[C@H]4[C@@H](C2)N(C)CC[C@@]341", "note": "[Codeine, codeine]", "values": [{"measurement": "ED50 (95% Conf. Limits)", "setting": "[3]", "value": "9.2 (6.6-11.9) mg/kg"}, {"measurement": "Oral ED50 (95% Confidence Limits)", "value": "9.2 (6.6-11.9)"}, {"measurement": "% Inhibition", "setting": "oral dose 5", "value": 19, "unit": "%"}, {"measurement": "No. Writhing Episodes", "setting": "oral dose 5", "value": 92}, {"measurement": "% Inhibition", "setting": "oral dose 10", "value": 62, "unit": "%"}, {"measurement": "No. Writhing Episodes", "setting": "oral dose 10", "value": 43}, {"measurement": "% Inhibition", "setting": "oral dose 20", "value": 86, "unit": "%"}, {"measurement": "No. Writhing Episodes", "setting": "oral dose 20", "value": 16}, {"measurement": "% Inhibition", "setting": "oral dose 40", "value": 98, "unit": "%"}, {"measurement": "No. Writhing Episodes", "setting": "oral dose 40", "value": 2}]}
{"smiles": "CC(C(=O)O)c1ccc2c(c1)[nH]c1ccc(Cl)cc12", "note": "(racemic) [Compound A, 6-chloro-α-methyl-carbazole-2-acetic acid]", "values": [{"measurement": "ED50 (95% Conf. Limits)", "setting": "[3]", "value": "48.8 (25.7-72.0) mg/kg"}, {"measurement": "Oral ED50 (95% Confidence Limits)", "value": "48.8 (25.7-72.0)"}, {"measurement": "ED50 (95% Conf. Limits)", "setting": "[2]", "value": "41.9 (33.5-50.0) mg/kg"}, {"measurement": "Oral Ed50", "setting": "Table IV", "value": "41.9(33.5-50.0)"}, {"measurement": "ED50 (95% Conf. Limits)", "setting": "[1]", "value": "54(27-108) mg/kg"}, {"measurement": "Oral Ed50", "setting": "Table VI", "value": "54(27-108)"}, {"measurement": "% Inhibition", "setting": "oral dose 25", "value": "17% and 18% and 29%"}, {"measurement": "No. Writhing Episodes", "setting": "oral dose 25", "value": "91 and 103 and 86"}, {"measurement": "% Inhibition", "setting": "oral dose 50", "value": "58% and 48% and 51%"}, {"measurement": "No. Writhing Episodes", "setting": "oral dose 50", "value": "47 and 66 and 59"}, {"measurement": "% Inhibition", "setting": "oral dose 100", "value": "87% and 73% and 74%"}, {"measurement": "% Inhibition", "setting": "oral dose 200", "value": "96% and 90% and 91%"}]}
